Some test systems named below: COLO 205 colon; SW-620 colon; BT-549 breast; HCT-15 colon; U251 CNS; SN12C renal; NCI-H460 lung; NCI-H522 lung; MALME-3M melanoma; MDA-N.
Holding throughout (test): NCI tumour cell line growth inhibition, 48 h

Molecules are shown by their SMILES.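 A five-concentration, 48-hour dose response in 96-well plates underlies each endpoint, interpolated linearly between surrounding concentrations. Definition used: TGI = concentration required for complete inhibition of growth.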

`Fc1ccc(C(OCCN2CCC3CCC(C2)N3C/C=C/c2cccnc2)c2ccc(F)cc2)cc1` (stereo not given): the TGI came to 2680 nM in the assay on COLO 205 colon; 23.1 µM in the assay on SW-620 colon; 26.4 µM in the assay on BT-549 breast; 21.6 µM with HCT-15 colon; 24.4 µM in the assay with U251 CNS; 26.2 µM in the assay with SN12C renal. In addition, the TGI in the assay with NCI-H460 lung turned out to be 30.6 µM; with NCI-H522 lung, 27 µM; in the assay with MALME-3M melanoma, 15 µM; with MDA-N, 23.8 µM.

For the origin of these results see PubChem BioAssay (NCI).
